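Assay format: 96-well plates, 48-hour exposure. TGI: concentration producing complete growth inhibition.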
How the values were obtained:
Assay in all cases: NCI-60 cell line screen, 48 h
786-0 renal = system: 786-0 renal
A498 renal = system: A498 renal
ACHN renal = system: ACHN renal
BT-549 breast = system: BT-549 breast
CAKI-1 renal = system: CAKI-1 renal
CCRF-CEM leukemia = system: CCRF-CEM leukemia
COLO 205 colon = system: COLO 205 colon
DU-145 prostate = system: DU-145 prostate
EKVX NSCLC = system: EKVX NSCLC
HCC-2998 colon = system: HCC-2998 colon
HCT-116 colon = system: HCT-116 colon
HCT-15 colon = system: HCT-15 colon
HL-60(TB) leukemia = system: HL-60(TB) leukemia
HOP-62 NSCLC = system: HOP-62 NSCLC
HOP-92 NSCLC = system: HOP-92 NSCLC
HS 578T breast = system: HS 578T breast
HT29 colon = system: HT29 colon
IGROV1 ovarian = system: IGROV1 ovarian
K-562 leukemia = system: K-562 leukemia
KM12 colon = system: KM12 colon
LOX IMVI melanoma = system: LOX IMVI melanoma
M14 melanoma = system: M14 melanoma
MALME-3M melanoma = system: MALME-3M melanoma
MCF7 breast = system: MCF7 breast
MDA-MB-231 breast = system: MDA-MB-231 breast
MDA-MB-435 = system: MDA-MB-435
MDA-N = system: MDA-N
MOLT-4 leukemia = system: MOLT-4 leukemia
NCI-H226 lung = system: NCI-H226 lung
NCI-H460 lung = system: NCI-H460 lung
NCI/ADR-RES ovarian = system: NCI/ADR-RES ovarian
OVCAR-3 ovarian = system: OVCAR-3 ovarian
OVCAR-4 ovarian = system: OVCAR-4 ovarian
OVCAR-5 ovarian = system: OVCAR-5 ovarian
OVCAR-8 ovarian = system: OVCAR-8 ovarian
PC-3 prostate = system: PC-3 prostate
RXF 393 renal = system: RXF 393 renal
SF-268 CNS = system: SF-268 CNS
SF-295 CNS = system: SF-295 CNS
SF-539 CNS = system: SF-539 CNS
SK-MEL-2 melanoma = system: SK-MEL-2 melanoma
SK-MEL-5 melanoma = system: SK-MEL-5 melanoma
SK-OV-3 ovarian = system: SK-OV-3 ovarian
SN12C renal = system: SN12C renal
SNB-19 CNS = system: SNB-19 CNS
SNB-75 CNS = system: SNB-75 CNS
SR leukemia = system: SR leukemia
T-47D breast = system: T-47D breast
TK-10 renal = system: TK-10 renal
U251 CNS = system: U251 CNS
UACC-62 melanoma = system: UACC-62 melanoma
UO-31 renal = system: UO-31 renal
A549 NSCLC = system: A549 NSCLC
NCI-H23 lung = system: NCI-H23 lung
NCI-H522 lung = system: NCI-H522 lung
RPMI-8226 leukemia = system: RPMI-8226 leukemia
SK-MEL-28 melanoma = system: SK-MEL-28 melanoma
SW-620 colon = system: SW-620 colon
UACC-257 melanoma = system: UACC-257 melanoma

## Cc1ccc2c(=O)cc(-c3sccc3C)[nH]c2n1
786-0 renal
  TGI: > 67.8 µM
A498 renal
  TGI: > 35 µM
ACHN renal
  TGI: > 54.5 µM
BT-549 breast
  TGI: > 100 µM
CAKI-1 renal
  TGI: > 100 µM
CCRF-CEM leukemia
  TGI: > 24.4 µM
COLO 205 colon
  TGI: 1.41 µM
DU-145 prostate
  TGI: > 67.3 µM
EKVX NSCLC
  TGI: > 100 µM
HCC-2998 colon
  TGI: 7.13 µM
HCT-116 colon
  TGI: 18.7 µM
HCT-15 colon
  TGI: > 40.6 µM
HL-60(TB) leukemia
  TGI: 0.743 µM
HOP-62 NSCLC
  TGI: > 100 µM
HOP-92 NSCLC
  TGI: > 100 µM
HS 578T breast
  TGI: 13.6 µM
HT29 colon
  TGI: 8.72 µM
IGROV1 ovarian
  TGI: > 96 µM
K-562 leukemia
  TGI: > 100 µM
KM12 colon
  TGI: > 59.5 µM
LOX IMVI melanoma
  TGI: > 38.1 µM
M14 melanoma
  TGI: > 34.4 µM
MALME-3M melanoma
  TGI: > 69.1 µM
MCF7 breast
  TGI: > 57.7 µM
MDA-MB-231 breast
  TGI: > 43.4 µM
MDA-MB-435
  TGI: > 100 µM
MDA-N
  TGI: 0.359 µM
MOLT-4 leukemia
  TGI: > 27.8 µM
NCI-H226 lung
  TGI: 6.55 µM
NCI-H460 lung
  TGI: > 79.8 µM
NCI/ADR-RES ovarian
  TGI: 0.693 µM
OVCAR-3 ovarian
  TGI: > 100 µM
OVCAR-4 ovarian
  TGI: > 100 µM
OVCAR-5 ovarian
  TGI: > 100 µM
OVCAR-8 ovarian
  TGI: > 31.8 µM
PC-3 prostate
  TGI: > 28 µM
RXF 393 renal
  TGI: > 20.1 µM
SF-268 CNS
  TGI: > 56.4 µM
SF-295 CNS
  TGI: > 100 µM
SF-539 CNS
  TGI: 1.79 µM
SK-MEL-2 melanoma
  TGI: > 40 µM
SK-MEL-5 melanoma
  TGI: 3.88 µM
SK-OV-3 ovarian
  TGI: > 100 µM
SN12C renal
  TGI: > 47.2 µM
SNB-19 CNS
  TGI: > 100 µM
SNB-75 CNS
  TGI: > 100 µM
SR leukemia
  TGI: > 61.1 µM
T-47D breast
  TGI: > 100 µM
TK-10 renal
  TGI: > 100 µM
U251 CNS
  TGI: > 33.6 µM
UACC-62 melanoma
  TGI: > 72 µM
UO-31 renal
  TGI: 23.8 µM

## O=C1NC2c3c(I)sc(I)c3C(=O)C2O1 (stereo not given)
786-0 renal
  TGI: 20.9 µM
A498 renal
  TGI: 22.4 µM
A549 NSCLC
  TGI: 28.3 µM
ACHN renal
  TGI: 7.89 µM
BT-549 breast
  TGI: 15.9 µM
CAKI-1 renal
  TGI: 9.36 µM
CCRF-CEM leukemia
  TGI: 11 µM
DU-145 prostate
  TGI: 31 µM
EKVX NSCLC
  TGI: 16.5 µM
HCC-2998 colon
  TGI: 15.5 µM
HCT-116 colon
  TGI: 6.87 µM
HCT-15 colon
  TGI: 3.63 µM
HL-60(TB) leukemia
  TGI: > 31.6 µM
HOP-62 NSCLC
  TGI: 28.1 µM
HOP-92 NSCLC
  TGI: 10.1 µM
HS 578T breast
  TGI: 35.1 µM
HT29 colon
  TGI: 3.25 µM
IGROV1 ovarian
  TGI: 8.01 µM
K-562 leukemia
  TGI: > 59.9 µM
KM12 colon
  TGI: 24.3 µM
LOX IMVI melanoma
  TGI: 5.15 µM
M14 melanoma
  TGI: 5.23 µM
MALME-3M melanoma
  TGI: 6.88 µM
MCF7 breast
  TGI: 13.7 µM
MDA-MB-231 breast
  TGI: 7.86 µM
MDA-MB-435
  TGI: 17.5 µM
MDA-N
  TGI: 9.16 µM
MOLT-4 leukemia
  TGI: > 38.5 µM
NCI-H226 lung
  TGI: 20.4 µM
NCI-H23 lung
  TGI: 16.6 µM
NCI-H460 lung
  TGI: 32.9 µM
NCI-H522 lung
  TGI: 3.16 µM
NCI/ADR-RES ovarian
  TGI: 34.1 µM
OVCAR-3 ovarian
  TGI: 11.1 µM
OVCAR-4 ovarian
  TGI: 23 µM
OVCAR-5 ovarian
  TGI: 28.3 µM
OVCAR-8 ovarian
  TGI: 9.27 µM
PC-3 prostate
  TGI: 19 µM
RPMI-8226 leukemia
  TGI: 34.1 µM
RXF 393 renal
  TGI: 12.7 µM
SF-268 CNS
  TGI: 21.5 µM
SF-295 CNS
  TGI: 30.5 µM
SF-539 CNS
  TGI: 4.92 µM
SK-MEL-2 melanoma
  TGI: 15.3 µM
SK-MEL-28 melanoma
  TGI: 21.5 µM
SK-MEL-5 melanoma
  TGI: 6.16 µM
SK-OV-3 ovarian
  TGI: 31.5 µM
SN12C renal
  TGI: 51.5 µM
SNB-19 CNS
  TGI: 17.8 µM
SNB-75 CNS
  TGI: 25.8 µM
SR leukemia
  TGI: 13.9 µM
SW-620 colon
  TGI: 9.76 µM
T-47D breast
  TGI: > 45.7 µM
TK-10 renal
  TGI: 27.3 µM
U251 CNS
  TGI: > 50 µM
UACC-257 melanoma
  TGI: 12.2 µM
UACC-62 melanoma
  TGI: 23.3 µM
UO-31 renal
  TGI: 12.2 µM

## Cc1cc(S(=O)(=O)NC2=NCc3nc4ccccc4n32)c(S)cc1Cl
786-0 renal
  TGI: 47.8 µM
A498 renal
  TGI: 70.7 µM
A549 NSCLC
  TGI: 83.2 µM
ACHN renal
  TGI: > 100 µM
BT-549 breast
  TGI: 71.9 µM
CAKI-1 renal
  TGI: > 100 µM
CCRF-CEM leukemia
  TGI: 86.6 µM
COLO 205 colon
  TGI: 34.4 µM
DU-145 prostate
  TGI: > 100 µM
EKVX NSCLC
  TGI: 86 µM
HCC-2998 colon
  TGI: 35.7 µM
HCT-116 colon
  TGI: 34.5 µM
HCT-15 colon
  TGI: 59.1 µM
HL-60(TB) leukemia
  TGI: 51.8 µM
HOP-92 NSCLC
  TGI: 47.2 µM
HS 578T breast
  TGI: 63.3 µM
IGROV1 ovarian
  TGI: 69.7 µM
K-562 leukemia
  TGI: > 100 µM
KM12 colon
  TGI: 38 µM
LOX IMVI melanoma
  TGI: 35 µM
M14 melanoma
  TGI: 63 µM
MALME-3M melanoma
  TGI: 56.2 µM
MCF7 breast
  TGI: 70.1 µM
MDA-MB-231 breast
  TGI: 55.9 µM
MDA-MB-435
  TGI: 82.8 µM
MDA-N
  TGI: 58.1 µM
MOLT-4 leukemia
  TGI: 50.2 µM
NCI-H226 lung
  TGI: 40.9 µM
NCI-H460 lung
  TGI: 82.4 µM
NCI-H522 lung
  TGI: > 100 µM
NCI/ADR-RES ovarian
  TGI: 54.6 µM
OVCAR-3 ovarian
  TGI: 40.3 µM
OVCAR-4 ovarian
  TGI: 83.2 µM
OVCAR-5 ovarian
  TGI: 65.1 µM
OVCAR-8 ovarian
  TGI: > 100 µM
PC-3 prostate
  TGI: 55.6 µM
RPMI-8226 leukemia
  TGI: 47.6 µM
RXF 393 renal
  TGI: 33 µM
SF-268 CNS
  TGI: > 100 µM
SF-295 CNS
  TGI: 37.6 µM
SF-539 CNS
  TGI: 42.7 µM
SK-MEL-2 melanoma
  TGI: 29.2 µM
SK-MEL-28 melanoma
  TGI: > 100 µM
SK-MEL-5 melanoma
  TGI: 32.1 µM
SN12C renal
  TGI: 51 µM
SNB-19 CNS
  TGI: > 100 µM
SNB-75 CNS
  TGI: 60.4 µM
SR leukemia
  TGI: 49.4 µM
SW-620 colon
  TGI: > 100 µM
T-47D breast
  TGI: 50.3 µM
TK-10 renal
  TGI: > 100 µM
U251 CNS
  TGI: > 100 µM
UACC-257 melanoma
  TGI: 62.2 µM
UACC-62 melanoma
  TGI: 33.3 µM
UO-31 renal
  TGI: 63.6 µM
